Common to all, as to format: biochemical
One assay addresses T1, EGFR (Homo sapiens, UniProt P00533).
T1 construct: purchased Carna 08-115
Nature of the assay: Kinase activity inhibition assay (HTRF TK Kit), selectivity. The text has this: (§1) In this assay, the HTRF TK Kit (Catalog No. 62TK0PEC) provided by Cisbio was used to detect the inhibitory activity of compounds on BTK kinase, BTK T474I kinase and BTK C481 S kinase and the selectivity of compounds relative to EGFR, ITK and TEC kinases.
(§2) Reagents and consumables: BTK kinase (Invitrogen, Catalog No. PV3587), BTK C481S (Carna, Product No. 08-547), BTK T474I(SignalChem Product No. B10-12HH), ITK (Cama, Product No. 08-181), EGFR (Cama, Product No. 08-115), TEC (Carna, Product No. 08-182), HTRF-TK kit (Cisbio, Product No. 62TK0PEC), MgCl2 (Sigma, Product No. M1028), MnCl2 (Sigma, Product No. M1787), DTT (Sigma, Product No. D0632), ATP (Sigma, Product No. A7699-1g), DMSO (Sigma, Product No. D2650), 384-well plate (PE, Product No. 6008280).
(§3) The entire operation steps were carried out on ice, and the total reaction volume was 10µL. A compound (4µL), substrate and ATP (4µL), and kinase (2µL) were added in sequence to a 384-well plate, and the plate was shaken for 30 seconds. The mixture was reacted at room temperature for an appropriate time, and then the detection reagent was added. The resulting mixture was reacted at room temperature for 1 hour, and then the plate was assayed with a microplate reader. The specific steps were as follows: • a) a 1 × kinase buffer solution required for the kinase assay was calculated according to the amount of the test compound, and prepared as needed; • b) 2.5 × working concentration of a compound was prepared, 100-fold gradient concentration solutions of a compound were diluted by 40 × to the desired concentration, respectively, mixed well, and added to each well at 4 µL per well; • c) 5 × working concentration of the substrate and ATP were prepared, mixed in a ratio of 1:1 before being added to the 384-well plate, and added to each well at 4 µL per well; • d) 5 × working concentration of a kinase was prepared, 2 µL of which was added to each well; • e) the plate was shaken on a microplate shaker for 30 seconds, sealed with a sealing membrane, and the mixture was reacted at room temperature for an appropriate time; • f) 4 × working concentration of streptavidin XL-665 and TK antibody-cryptate compound were prepared, mixed in a ratio of 1:1 before being added to the 384-well plate, and added to each well at 10 µL per well; • g) the mixture was reacted at room temperature for 1 hour, and then the plate was read; • h) the wells with only substrate, ATP and 1% DMSO added but no kinase were blank control wells, and the wells with only substrate, ATP, 1% DMSO and kinase were positive control wells.
(§4) Readings: The values of 620 nm (cryptate) and 665 nm (XL665) were read with a BioTek Synerg Neo2 microplate reader, the ratio of 665/620 for each well was calculated, and the data were exported.
(§5) Data analysis: IC50 was calculated using GraphPad Prism 7.0 software.
(§6) The IC50 (half-maximal inhibitory concentration) of the compound was obtained using the following nonlinear fitting formula: Y = Bottom + (Top−Bottom)/(1+10^(∧)((LogIC50−X)*HillSlope)) [formula] • X: Log value of the compound concentration • Y: Inhibition rate (% inhibition) • Top: Maximum response • Bottom: Baseline response • HillSlope: Slope of the curve
(§7) The formula for calculating kinase inhibition rate (inhibition rate %) was: [formula]

Another assay concerns the target T2, TEC (Homo sapiens, UniProt P42680).
T2 construct: purchased Carna 08-182
T2 sequence (P42680 1-631): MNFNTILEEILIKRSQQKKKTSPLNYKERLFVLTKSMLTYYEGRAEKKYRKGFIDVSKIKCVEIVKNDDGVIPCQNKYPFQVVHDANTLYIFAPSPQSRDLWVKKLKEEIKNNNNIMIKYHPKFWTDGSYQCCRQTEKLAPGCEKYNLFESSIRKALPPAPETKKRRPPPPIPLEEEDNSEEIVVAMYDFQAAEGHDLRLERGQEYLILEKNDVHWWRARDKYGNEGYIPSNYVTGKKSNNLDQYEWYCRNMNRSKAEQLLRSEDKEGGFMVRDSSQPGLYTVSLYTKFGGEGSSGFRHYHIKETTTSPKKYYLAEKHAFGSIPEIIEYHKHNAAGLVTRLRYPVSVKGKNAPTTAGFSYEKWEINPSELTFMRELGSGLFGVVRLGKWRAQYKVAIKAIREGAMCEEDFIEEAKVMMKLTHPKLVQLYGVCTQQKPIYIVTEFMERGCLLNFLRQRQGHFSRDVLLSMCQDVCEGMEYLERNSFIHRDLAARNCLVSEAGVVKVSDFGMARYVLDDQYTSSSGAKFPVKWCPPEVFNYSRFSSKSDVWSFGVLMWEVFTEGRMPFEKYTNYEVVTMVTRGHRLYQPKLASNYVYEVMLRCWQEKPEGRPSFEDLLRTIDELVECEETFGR
The description is as above.
Source text: as §1, §2, §3, §4, §5, §6, §7

The target of another assay is T3, ITK (Homo sapiens, UniProt Q08881).
T3 construct: purchased Carna 08-181
T3 sequence (Q08881 1-620): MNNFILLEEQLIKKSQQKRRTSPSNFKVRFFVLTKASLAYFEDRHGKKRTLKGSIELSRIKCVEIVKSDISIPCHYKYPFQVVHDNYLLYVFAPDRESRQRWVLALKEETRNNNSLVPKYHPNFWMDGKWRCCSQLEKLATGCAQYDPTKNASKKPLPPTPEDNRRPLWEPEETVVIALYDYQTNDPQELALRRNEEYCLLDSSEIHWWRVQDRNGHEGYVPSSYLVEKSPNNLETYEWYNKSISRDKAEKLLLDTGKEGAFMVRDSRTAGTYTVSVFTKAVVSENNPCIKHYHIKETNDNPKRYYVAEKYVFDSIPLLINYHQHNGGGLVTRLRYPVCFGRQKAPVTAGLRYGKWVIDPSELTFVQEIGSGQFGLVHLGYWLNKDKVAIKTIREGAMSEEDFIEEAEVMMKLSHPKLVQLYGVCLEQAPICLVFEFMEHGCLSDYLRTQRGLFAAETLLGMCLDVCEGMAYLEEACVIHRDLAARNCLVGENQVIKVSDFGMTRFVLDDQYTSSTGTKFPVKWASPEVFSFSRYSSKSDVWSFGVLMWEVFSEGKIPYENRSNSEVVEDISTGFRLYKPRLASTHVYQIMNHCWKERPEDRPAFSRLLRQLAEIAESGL
The description is as above.
Source text: as §1, §2, §3, §4, §5, §6, §7

The target of another assay is T4, BTK C481S (Homo sapiens, UniProt Q06187, C481S).
T4 construct: purchased Carna 08-547
Nature of the assay: Kinase activity inhibition assay (HTRF TK Kit).
Source text: as §1, §2, §3, §4, §5, §6, §7
(In general: Time-resolved FRET reads energy transfer from a long-lived donor to a nearby acceptor.)

The target in the next assay is T5, BTK T474I (Homo sapiens, UniProt Q06187, T474I).
T5 construct: purchased SignalChem B10-12HH
Kind of assay: Kinase activity inhibition assay (HTRF TK Kit).
Source text: as §1, §2, §3, §4, §5, §6, §7

The target in another assay is T6, BTK kinase (Homo sapiens, UniProt Q06187).
T6 construct: purchased Invitrogen PV3587
Nature of the assay: Kinase activity inhibition assay (HTRF TK Kit).
Source text: as §1, §2, §3, §4, §5, §6, §7

This is an account of results in patent publication EP4741392A1, “1H-PYRAZOLO[4,3-C]PYRIDINE COMPOUND, AND COMPOSITION THEREOF AND USE THEREOF” (Shenzhen TargetRx Co., Ltd., priority 2023, dated 2025).

T4 sequence (Q06187 whole entry C481S): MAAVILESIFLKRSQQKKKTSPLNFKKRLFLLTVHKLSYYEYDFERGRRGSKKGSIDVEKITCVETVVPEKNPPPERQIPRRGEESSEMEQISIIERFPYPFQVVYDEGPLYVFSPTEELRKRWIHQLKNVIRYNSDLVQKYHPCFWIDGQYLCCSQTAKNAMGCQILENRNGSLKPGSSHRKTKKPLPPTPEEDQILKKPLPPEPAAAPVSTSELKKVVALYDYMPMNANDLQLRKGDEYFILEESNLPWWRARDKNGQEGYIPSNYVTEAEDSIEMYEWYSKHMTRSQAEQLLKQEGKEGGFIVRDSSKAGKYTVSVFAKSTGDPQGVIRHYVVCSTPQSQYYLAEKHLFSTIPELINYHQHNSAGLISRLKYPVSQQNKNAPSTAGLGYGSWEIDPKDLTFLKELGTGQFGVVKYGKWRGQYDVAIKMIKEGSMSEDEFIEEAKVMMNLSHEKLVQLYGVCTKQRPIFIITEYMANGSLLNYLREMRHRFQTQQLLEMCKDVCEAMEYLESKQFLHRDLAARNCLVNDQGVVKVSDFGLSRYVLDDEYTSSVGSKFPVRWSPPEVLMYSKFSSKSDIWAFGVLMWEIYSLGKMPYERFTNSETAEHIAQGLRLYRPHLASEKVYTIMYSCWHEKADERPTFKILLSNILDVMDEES
T5 sequence (Q06187 whole entry T474I): as the sequence (Q06187 whole entry C481S) above, with T474I, S481C counted along it
T6 sequence (Q06187 whole entry): as the sequence (Q06187 whole entry C481S) above, with S481C counted along it
T1 sequence (P00533 669-1210 limits assumed): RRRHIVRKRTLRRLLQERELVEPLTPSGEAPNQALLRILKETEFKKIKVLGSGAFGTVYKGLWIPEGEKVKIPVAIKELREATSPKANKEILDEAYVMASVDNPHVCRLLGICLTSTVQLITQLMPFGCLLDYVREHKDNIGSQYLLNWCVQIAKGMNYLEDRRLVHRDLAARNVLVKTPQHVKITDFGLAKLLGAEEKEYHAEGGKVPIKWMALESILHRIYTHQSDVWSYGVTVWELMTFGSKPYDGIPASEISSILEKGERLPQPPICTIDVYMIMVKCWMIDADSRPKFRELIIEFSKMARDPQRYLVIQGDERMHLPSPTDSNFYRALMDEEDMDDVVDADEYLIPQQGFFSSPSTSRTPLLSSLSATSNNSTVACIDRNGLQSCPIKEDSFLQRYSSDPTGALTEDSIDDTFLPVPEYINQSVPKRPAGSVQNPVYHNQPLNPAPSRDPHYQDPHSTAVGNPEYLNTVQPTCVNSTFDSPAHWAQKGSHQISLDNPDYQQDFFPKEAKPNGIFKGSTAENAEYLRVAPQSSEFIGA

Regarding `COc1ccc(F)cc1C(=O)NCc1ccc(-c2nc(C(C)C(F)(F)F)c(-c3cc(C)[nH]n3)c3[nH]nc(N)c23)cc1` (stereo not drawn) [Example 9, N-(4-(3-amino-7-(5-methyl-1H-pyrazol-3-yl)-6-(1,1,1-trifluoropropan-2-yl)-1H-pyrazolo[4,3-c]pyridin-4-yl)benzyl)-5-fluoro-2-methoxybenzamide], the IC50 is 0.05 to 0.5 µM at EGFR; 0.05 to 0.5 µM at TEC; over 0.5 µM on ITK; 0.005 to 0.05 µM on BTK C481S; 0.05 to 0.5 µM on BTK T474I; 0.001 to 0.005 µM at BTK kinase.
Take `COc1ccc(F)cc1C(=O)NCc1ccc(-c2ncc(-c3ccccn3)c3[nH]nc(N)c23)cc1` [Example 15, N-(4-(3-amino-7-(pyridin-2-yl)-1H-pyrazolo[4,3-c]pyridin-4-yl)benzyl)-5-fluoro-2-methoxybenzamide]: the IC50 on EGFR is 0.05 to 0.5 µM; on TEC it was 0.005 to 0.05 µM; on ITK, over 0.5 µM; at BTK C481S, at most 0.001 µM; at BTK T474I, 0.05 to 0.5 µM; at BTK kinase, at most 0.001 µM.
For `COc1ccc(F)cc1C(=O)NCc1ccc(-c2ncc(-c3ncccn3)c3[nH]nc(N)c23)cc1` [Example 17, N-(4-(3-amino-7-(pyrimidin-2-yl)-1H-pyrazolo[4,3-c]pyridin-4-yl)benzyl)-5-fluoro-2-methoxybenzamide], the 50% inhibitory concentration (IC50) is over 0.5 µM at EGFR; 0.005 to 0.05 µM on TEC; over 0.5 µM at ITK; 0.001 to 0.005 µM on BTK C481S; 0.05 to 0.5 µM at BTK T474I; 0.001 to 0.005 µM on BTK kinase.
Regarding `COc1ccc(F)cc1C(=O)NCc1ccc(-c2ncc(-c3cnccn3)c3[nH]nc(N)c23)cc1` [Example 18, N-(4-(3-amino-7-(pyrazin-2-yl)-1H-pyrazolo[4,3-c]pyridin-4-yl)benzyl)-5-fluoro-2-methoxybenzamide], the IC50 at EGFR was over 0.5 µM; on TEC, 0.05 to 0.5 µM; at ITK, over 0.5 µM; on BTK C481S it was 0.001 to 0.005 µM; at BTK T474I, 0.05 to 0.5 µM; at BTK kinase, 0.005 to 0.05 µM.
For `COc1ccc(F)cc1C(=O)NCc1ccc(-c2ncc(-c3ccncn3)c3[nH]nc(N)c23)cc1` [Example 19], the IC50 was over 0.5 µM at EGFR; 0.05 to 0.5 µM at TEC; over 0.5 µM at ITK; 0.001 to 0.005 µM at BTK C481S; 0.05 to 0.5 µM on BTK T474I; 0.001 to 0.005 µM on BTK kinase.
Consider `COc1ccc(F)cc1C(=O)NCc1ccc(-c2ncc(-c3ccc(F)cn3)c3[nH]nc(N)c23)cc1` [Example 21, N-(4-(3-amino-7-(5-fluoropyridin-2-yl)-1H-pyrazolo[4,3-c]pyridin-4-yl)benzyl)-5-fluoro-2-methoxybenzamide], for which the 50% inhibitory concentration (IC50) at EGFR is over 0.5 µM; at TEC, 0.05 to 0.5 µM; on ITK, over 0.5 µM; on BTK C481S, 0.005 to 0.05 µM; at BTK T474I, 0.05 to 0.5 µM; on BTK kinase, 0.001 to 0.005 µM.
Regarding `COc1ccc(F)cc1C(=O)NCc1ccc(-c2ncc(-c3cnn(C)c3)c3[nH]nc(N)c23)cc1` [Example 22, N-(4-(3-amino-7-(1-methyl-1H-pyrazol-4-yl)-1H-pyrazolo[4,3-c]pyridin-4-yl)benzyl)-5-fluoro-2-oxybenzamide], the IC50 was over 0.5 µM on EGFR; over 0.5 µM at TEC; over 0.5 µM on ITK; 0.005 to 0.05 µM on BTK C481S; 0.05 to 0.5 µM on BTK T474I; 0.005 to 0.05 µM on BTK kinase.
Take `COc1ccc(F)cc1C(=O)NCc1ccc(-c2ncc(-c3ccn(C)n3)c3[nH]nc(N)c23)cc1` [Example 23, N-(4-(3-amino-7-(1-methyl-1H-pyrazol-3-yl)-1H-pyrazolo[4,3-c]pyridin-4-yl)benzyl)-5-fluoro-2-methoxybenzamide]: the IC50 is 0.05 to 0.5 µM on EGFR; 0.005 to 0.05 µM on TEC; over 0.5 µM on ITK; at most 0.001 µM at BTK C481S; 0.05 to 0.5 µM on BTK T474I; at most 0.001 µM at BTK kinase.
In the case of `COc1ccc(F)cc1C(=O)NCc1ccc(-c2ncc(-c3ccc(C(F)(F)F)cn3)c3[nH]nc(N)c23)cc1` [Example 24, N-(4-(3-amino-7-(5-(trifluoromethyl)pyridin-2-yl)-1H-pyrazolo[4,3-c]pyridin-4-yl)benzyl)-5-fluoro-2-methoxybenzamide], the IC50 at EGFR is over 0.5 µM; on TEC it was 0.05 to 0.5 µM; on ITK it was over 0.5 µM; at BTK C481S, 0.005 to 0.05 µM; on BTK T474I it was 0.05 to 0.5 µM; at BTK kinase it was 0.005 to 0.05 µM.
Take `COc1ccc(F)cc1C(=O)NCc1ccc(-c2ncc(-c3ccn(CC(=O)N(C)C)n3)c3[nH]nc(N)c23)cc1` [Example 25, N-(4-(3-amino-7-(1-(2-(dimethylamino)-2-oxoethyl)-1H-pyrazol-3-yl)-1H-pyrazolo[4,3-c]pyridin-4-yl)benzyl)-5-fluoro-2-methoxybenzamide]: the IC50 at EGFR is 0.05 to 0.5 µM; at TEC, 0.05 to 0.5 µM; at ITK, over 0.5 µM; on BTK C481S, 0.001 to 0.005 µM; on BTK T474I it was 0.05 to 0.5 µM; at BTK kinase it was 0.001 to 0.005 µM.
As for `CNC(=O)Cn1ccc(-c2cnc(-c3ccc(CNC(=O)c4cc(F)ccc4OC)cc3)c3c(N)n[nH]c23)n1` [Example 26, N-(4-(3-amino-7-(1-(2-(methylamino)-2-oxoethyl)-1H-pyrazol-3-yl)-1H-pyrazolo[4,3-c]pyridin-4-yl)benzyl)-5-fluoro-2-methoxybenzamide], the IC50 on EGFR is 0.05 to 0.5 µM; on TEC it was 0.05 to 0.5 µM; on ITK, over 0.5 µM; on BTK C481S, 0.001 to 0.005 µM; at BTK T474I, 0.05 to 0.5 µM; on BTK kinase, 0.001 to 0.005 µM.

For orientation: IC50 means the point on the concentration scale where inhibition reaches its midpoint.
